The nature of data set [1]: Photobleaching / absorbance stability. Type of data set: physicochemical. The note with it: 525 nm laser; 0.8 mg/mL transferrin. The method, then:
Photobleaching was measured: (a) at wavelength in visible range maximal for each photosensitizer. This allows to estimate dynamics of amount of unbleached photosensitizer during irradiation; and (b) at 530, 635 and 808 nm. This allows estimating dynamics of unbleached photosensitizer available to exert PDT effect at these wavelengths as practically useful for PDT treatments.
Photosensitizers (10 uM) were dissolved in phosphate buffer+100 mM NaCl (pH=7.0) alone or in a buffer with 0.8 mg/mL of transferrin at a total volume of 1 mL. The mixture was then exposed to a 525 nm laser source (130 mW) and the absorbance at the maximal absorbance in visible range (432 nm for TLD1433, 425 nm for TLD143310 and 562 nm for TLDOsH2dppn) was measured at specific time points. The plot represents the absorbance ratio (absorbance of exposed samples/absorbance of unexposed sample) as a function of the number of incident photons per cm^−2. Decreasing absorbance ratio signifies bleaching of the photosensitizer.
Photosensitizers (10 uM) were dissolved in phosphate buffer+100 mM NaCl (pH=7.0) alone or in a buffer with 0.8 mg/mL of transferrin at a total volume of 1 mL. The mixture was then exposed to a 525 nm laser source (130 mW) and the absorbance at 530 nm was measured at specific time points. The plot represents the absorbance ratio (absorbance of exposed samples/absorbance of unexposed sample) as a function of the number of incident photons per cm^−2. Decreasing absorbance ratio signifies bleaching of the photosensitizer.
Photosensitizers (10 uM) were dissolved in phosphate buffer+100 mM NaCl (pH=7.0) alone or in a buffer with 0.8 mg/mL of transferrin at a total volume of 1 mL. The mixture was then exposed to a 525 nm laser source (130 mW) and the absorbance at 635 nm was measured at specific time points. The plot represents the absorbance ratio (absorbance of exposed samples/absorbance of unexposed sample) as a function of the number of incident photons per cm^−2. Decreasing absorbance ratio signifies bleaching of the photosensitizer. […]

In the next data set the test system is normal human fibroblasts. Description: Uptake by normal cells by ICP-MS. Type of data set: cell-based. The note with it: 200 uM, 0.8 mg/mL transferrin, 4 hours, much lesser extent than cancer cells. How it is done:
Cell culture (normal human fibroblasts) was exposed to 200 uM of the photosensitizer without additional transferrin and in the presence of 0.8 mg/mL transferrin for 4 hours. The incubation mix was washed away and the cells were collected, counted, and lysed. Lysed solution was dissolved in nitric acid and appropriate metals concentration was measured using inductively coupled plasma mass spectrometry. The metals concentration is directly proportional to the concentration of the photosensitizer.

For another data set, the system named is AY27 cancer cells. The experiment in a line: Transferrin receptor antibody blocking, dark toxicity and PDT effect. Type of data set: cell-based. The following applies: 635 nm, 90 J cm−2, anti-transferrin receptor antibody. The method, then:
The cells were incubated with anti-transferrin receptor antibody. The photosensitizer was pre-mixed in parallel with 0.4 mg/mL human transferrin and incubated for 1 hour at 37° C. In control group (no additional transferrin), equivalent volume of no-transferrin medium was added. The cells were washed of the excess of antibody (the cells incubated in medium without antibody served as comparison groups) and incubated with the pre-mixes for 30 minutes. After that, the medium was replaced with a fresh one (without photosensitizer and transferrin) and the cells were irradiated. On the next day (21 hours post-irradiation), viability of the cells was measured using Presto Blue viability assay, and percent of cell kill was calculated. The PDT effect shown is a result of subtraction of “photosensitizer alone” and “light alone” cell kill from the total PDT cell kill. Dark toxicity is shown on FIG. 20A, PDT effect is shown on FIG. 20B.
(§1) The cells were incubated with anti-transferrin antibody. […] On the next day (21 hours post-irradiation), viability of the cells was measured using Presto Blue viability assay, and percent of cell kill was calculated. […]
as §1

Another data set has as its target Transferrin (Homo sapiens, UniProt P02787). The experiment in a line: Binding to transferrin by absorption spectra. The note with it: transferrin 0.2 mg/mL; photosensitizer 10 uM. The method, then:
Transferrin (0.2 mg/mL) was incubated with the photosensitizers (10 uM) and absorption spectra were obtained.
Binding of Ruthenium and Ruthenium-Rhodium-based photosensitizers to transferrin is characterized by a characteristic signature: an increased peak of absorption at 280 nm and a new peak in 400-500 nm range.

Transferrin, sequence (P02787 20-698): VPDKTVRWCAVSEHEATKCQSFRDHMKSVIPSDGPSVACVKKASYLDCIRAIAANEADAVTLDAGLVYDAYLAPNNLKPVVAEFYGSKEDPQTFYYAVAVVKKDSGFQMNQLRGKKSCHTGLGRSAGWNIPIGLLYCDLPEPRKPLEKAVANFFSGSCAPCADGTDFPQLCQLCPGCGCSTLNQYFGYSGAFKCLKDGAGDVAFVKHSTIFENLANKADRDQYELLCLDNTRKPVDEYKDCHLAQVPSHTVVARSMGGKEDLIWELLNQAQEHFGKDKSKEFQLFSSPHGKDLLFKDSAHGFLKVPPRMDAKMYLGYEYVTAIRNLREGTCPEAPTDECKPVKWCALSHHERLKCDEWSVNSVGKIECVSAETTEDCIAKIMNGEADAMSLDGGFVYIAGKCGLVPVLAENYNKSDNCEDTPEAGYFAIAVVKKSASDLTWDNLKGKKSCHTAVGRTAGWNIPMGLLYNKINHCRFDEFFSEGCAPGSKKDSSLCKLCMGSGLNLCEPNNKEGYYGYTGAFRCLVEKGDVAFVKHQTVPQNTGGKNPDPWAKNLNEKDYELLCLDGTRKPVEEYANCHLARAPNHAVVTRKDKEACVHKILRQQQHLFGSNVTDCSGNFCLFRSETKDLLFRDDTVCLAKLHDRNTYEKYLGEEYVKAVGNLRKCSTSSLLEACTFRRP

On to `[Os+2].c1ccc2cc3nc4c5cccnc5c5ncccc5c4nc3cc2c1.c1ccc2nc(-c3ccc4ccccc4n3)ccc2c1.c1ccc2nc(-c3ccc4ccccc4n3)ccc2c1` [TLDOsH2dppn], for which, in data set [1], the “photobleaching, absorbance ratio at 530 nm” value is “bleaching of the photosensitizers was reduced”; the “photobleaching, absorbance ratio at 635 nm” value is given as “bleaching of the photosensitizers was reduced”; the “photobleaching, absorbance ratio at 808 nm” value is listed as “bleaching of the photosensitizers was reduced”. Besides, the “cellular accumulation in normal cells, effect of transferrin” value in the data set with normal human fibroblasts was “higher in the presence of transferrin”. Moreover, the “effect of blocking transferrin receptors on dark toxicity and PDT effect” value in the data set on AY27 cancer cells was “prevents decrease in dark toxicity and facilitation of PDT effect”. For the same compound, the “transferrin binding (absorption spectra)” value on Transferrin is reported as “transferrin binding”.

The record behind these values is patent US10111936B2, “Metal-glycoprotein complexes and photodynamic therapy of immune privileged sites with same” (Theralase Technologies, Inc., priority 2015, dated 2018).
